Reference: patent publication US20090082451A1, “USE OF THYROID HORMONE CONVERSION INHIBITORS” (Trustees of Boston University, priority 2004, published 2009)
“Also recorded” adds a separate entry of the source.

What was measured:
[1] = tested on: human epidermal keratinocytes; assay: Human epidermal keratinocyte proliferation, 3H-thymidine incorporation; type: cell-based; conditions: overnight incubation; 10 μl of 1.5 mM stock per 500 μl medium; ±SEM
Procedure: (§1) Human keratinocytes were grown in primary culture on a support matrix derived from irradiated fibroblasts. When the cultures reached 40% confluence, the cells were fed basal medium alone for 24 hours and then incubated overnight in medium containing a test substance or sham. The cells were then treated with saturating quantities of ^3H-thymidine (New England Nuclear, Boston, Mass.); DNA was precipitated with 5% perchlorate and relative incorporated thymidine was assessed with a beta counter. Experiments were performed in quadruplicate and averaged. Results reported represent a minimum of three separate quadruplicate experiments.
(§2) The reagents used for tissue culture were iopanoic acid (Sigma, St. Louis, Mo.), sodium ipodate (Fitzgerald Industries International, Flanders, N.J.), and propranolol (Sigma, St. Louis, Mo.). Reagents were dissolved into modestly basic stock solutions to the following final concentrations: 0.025 mM NaOH, 0.2 M NaCl, 1.5 mM reagent. Each experiment used 10 μl of stock reagent (or sham) per 500 μl of medium. For FIGS. 13-18, the “low” concentration is 3 μM for each reagent, and the “high” concentration was 30 μM for each reagent.

[2] = Serum total thyroxine (T4) by radioimmunoassay in topically treated mice; type: in vivo, CD-1 mice; conditions: mice treated with IOP cream, relative to control mice; listed as IOP
Procedure: Serum total thyroxine levels were measured with a standard radioimmunoassay kit (ICN, Orangeburg, N.Y.). Unlike other thyroid hormone kits which use anti-mouse antibodies, the ICN kit uses anti-rabbit antibodies and avoids spuriously elevated readings in mice. Thyroid hormone levels for mice fall at the low end of the human range so the human standards included in the kit were used.

epidermal proliferation = assay: Topical iopanoic acid cream in mice: epidermal thickness and BrdU incorporation; type: in vivo, CD-1 mice
Procedure: A topical iopanoic acid (IOP) cream was prepared by mixing IOP (Sigma, St. Louis, Mo.) into a liposome vehicle (Novasome A, IGI inc., New Jersey) previously described (Safer 2001, Safer 2003, Safer 2005). Each mouse received 30 μl of the liposome vehicle applied directly to a 3×3 cm area of shaved skin on the animal's backs. The preparation was applied daily and not removed.
The treatment groups received cream containing 6 mg IOP daily. The control groups were treated with daily application of vehicle alone.
Five week old CD-1 mice were randomized into 2 groups (FIG. 1). The groups had 6 mice each and were evaluated in a crossover study. Each mouse in the crossover study was evaluated twice: once after a 6 mg daily IOP treatment and once after treatment with vehicle alone. Six mice received IOP first followed by a 3 month wash-out/healing completion period. The animals were then evaluated after treatment with topical vehicle alone. Six mice started with vehicle alone and received the IOP treatment after the 3 month wash-out/healing completion period.
All topically treated mice were caged separately to avoid animals receiving doses from their neighbors during grooming. The cream was applied to a midline cephalad region on the animals' backs to minimize the impact of personal grooming on dosing.
Epidermal proliferation was assessed by measuring both epidermal thickness and 5-bromo-2′-deoxyuridine (BrdU, Boehringer Mannheim, Mannheim, Germany) incorporation into DNA. At the completion of the protocols noted, animals were biopsied with full thickness dorsal skin samples were taken. Three hours prior to biopsy, each mouse had received intraperitoneal BrdU as previously described (Safer 2001). Skin samples were fixed in formalin and embedded in paraffin. From each paraffin block, […] sections were made and stained with hematoxylin and eosin (H&E). Epidermal thickness was measured in 10 random locations for each mouse. Additional 5 μm skin histology sections from the above paraffin blocks were stained for BrdU as previously described (Safer 2001). BrdU data are reported as the number of cell nuclei stained/[…] epidermis.

[3] = tested on: Human prostate (HPV) cells; type: cell-based; conditions: overnight incubation; 10 μl of 1.5 mM stock per 500 μl medium; ±SEM
Procedure: as §1, with “prostate (HPV) cells” for “keratinocytes”, “under standard conditions.” for “in primary culture on a support matrix derived from irradiated fibroblasts.”
as §2

[4] = tested on: Monkey kidney (CV-1) cells; assay: Monkey kidney cell proliferation, 3H-thymidine incorporation; type: cell-based; conditions: overnight incubation; 10 μl of 1.5 mM stock per 500 μl medium; ±SEM
Procedure: as §1, with “Monkey kidney (CV-1) cells” for “Human keratinocytes”, “under standard conditions.” for “in primary culture on a support matrix derived from irradiated fibroblasts.”
as §2

[5] = tested on: Opossum kidney (OK) cells; assay: Opossum kidney cell proliferation, 3H-thymidine incorporation; type: cell-based; conditions: overnight incubation; 10 μl of 1.5 mM stock per 500 μl medium; ±SEM
Procedure: as §1, with “Opossum kidney (OK) cells” for “Human keratinocytes”, “under standard conditions.” for “in primary culture on a support matrix derived from irradiated fibroblasts.”
as §2

[6] = topical cream, 6 mg IOP daily, vs vehicle, p<0.05

Row | SMILES | inhibition of proliferation of human epidermal keratinocytes relative to control cultures [1] [%] | serum T4 levels [2] | epidermal proliferation (epidermal proliferation; Group 1 mice: control vehicle first, then IOP (FIG. 2)) | epidermal proliferation (epidermal proliferation; Group 2 mice: IOP first, then control vehicle (FIG. 3)) | less epidermal BrdU staining than control mice (epidermal proliferation; [6]) [%] | thinner epidermis than control mice (epidermal proliferation; [6]) [%] | inhibition of proliferation of human prostate cells relative to control cultures [3] [%] | inhibition of proliferation of monkey kidney cells relative to control cultures [4] [%] | inhibition of proliferation of opossum kidney cells relative to control cultures [5] [%]
1 | CCC(Cc1c(I)cc(I)c(N)c1I)C(=O)O (centres unmarked) [iopanoic acid] | 61±9 | remained steady; also recorded: not changed | significantly diminished | significantly diminished | 30 | 20 | 26±4 | – | –
2 | O=C(NCC(O)CO)c1c(I)c(C(=O)NCC(O)CO)c(I)c(N(CCO)C(=O)CO)c1I (centres unmarked) [ioversol] | – | – | – | – | – | – | 22 | – | –
3 | CN(C)/C=N/c1c(I)cc(I)c(CCC(=O)[O-])c1I.[Na+] [ipodate sodium] | 14±6 | – | – | – | – | – | 30±5 | – | –
4 | CC(C)NCC(O)COc1cccc2ccccc12 (centres unmarked) [propranolol] | 62±3 | – | – | – | – | – | 84±8 | 82±5 | 88±10
